Experimental data published in the supplement of paper PMC10307832.

How the values were obtained:
Test in all cases: relative viability (nuclei count vs DMSO), 5 days (fraction); higher = more cells survive
Decitabine + Olaparib = compound: Nc1ncn([C@H]2C[C@H](O)[C@@H](CO)O2)c(=O)n1 [Decitabine] + O=C(c1cc(Cc2n[nH]c(=O)c3ccccc23)ccc1F)N1CCN(C(=O)C2CC2)CC1 [Olaparib] (partner 8 µM)
Method in brief: (§1)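 Lung cancer cell lines in 1536-well plates got either a single drug or a fixed anchor-drug dose together with five library-drug doses (not always all listed) in √10 steps, by pin tool, on the day after seeding. Nuclei were counted after 5 days, and relative viability is the treated-to-vehicle ratio of nuclei counts. Values are medians of duplicate plates.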

Cediranib + Linsitinib = compound: COc1cc2c(Oc3ccc4[nH]c(C)cc4c3F)ncnc2cc1OCCCN1CCCC1 [Cediranib] + C[C@]1(O)C[C@@H](c2nc(-c3ccc4ccc(-c5ccccc5)nc4c3)c3c(N)nccn32)C1 [Linsitinib] (partner 1 µM)
Method in brief: as §1

[1] = compound: O=C(C[C@H]1NCCC[C@@H]1O)Cn1cnc2cc(Br)c(Cl)cc2c1=O (racemic) [Halofuginone] + CC(=O)Nc1cccc(-n2c(=O)n(C3CC3)c(=O)c3c(Nc4ccc(I)cc4F)n(C)c(=O)c(C)c32)c1 [Trametinib] (partner 0.02 µM)
Method in brief: as §1

Decitabine + Linsitinib = compound: Nc1ncn([C@H]2C[C@H](O)[C@@H](CO)O2)c(=O)n1 [Decitabine] + C[C@]1(O)C[C@@H](c2nc(-c3ccc4ccc(-c5ccccc5)nc4c3)c3c(N)nccn32)C1 [Linsitinib] (partner 1 µM)
Method in brief: as §1

Cell Line | relative viability (Decitabine + Olaparib; first compound 0.04 µM) | relative viability (Decitabine + Olaparib; first compound 0.1265 µM) | relative viability (Decitabine + Olaparib; first compound 0.4 µM) | relative viability (Decitabine + Olaparib; first compound 1.265 µM) | relative viability (Decitabine + Olaparib; first compound 4 µM) | relative viability (Cediranib + Linsitinib; first compound 0.04 µM) | relative viability (Cediranib + Linsitinib; first compound 0.1265 µM) | relative viability (Cediranib + Linsitinib; first compound 0.4 µM) | relative viability (Cediranib + Linsitinib; first compound 1.265 µM) | relative viability (Cediranib + Linsitinib; first compound 4 µM) | relative viability ([1]; first compound 0.001 µM) | relative viability ([1]; first compound 0.003162 µM) | relative viability ([1]; first compound 0.01 µM) | relative viability ([1]; first compound 0.03162 µM) | relative viability ([1]; first compound 0.1 µM) | relative viability (Decitabine + Linsitinib; first compound 0.04 µM) | relative viability (Decitabine + Linsitinib; first compound 0.1265 µM) | relative viability (Decitabine + Linsitinib; first compound 0.4 µM) | relative viability (Decitabine + Linsitinib; first compound 1.265 µM) | relative viability (Decitabine + Linsitinib; first compound 4 µM)
NCI-H1355 | 0.33 | 0.348 | 0.245 | 0.194 | 0.195 | 0.8 | 0.866 | 0.781 | 0.813 | 0.96 | 0.481 | 0.429 | 0.4 | 0.415 | 0.4 | 0.663 | 0.622 | 0.52 | 0.348 | 0.827
NCI-H1395 | 0.518 | 0.432 | 0.465 | 0.438 | 0.418 | 0.937 |  | 1.11 | 1.16 | 0.936 | 0.95 | 1.03 | 0.912 | 0.889 | 0.746 | 0.768 | 0.938 | 0.597 | 0.63 | 0.509
NCI-H1437 | 0.435 | 0.416 | 0.381 | 0.268 | 0.246 | 1.09 | 0.987 | 0.951 | 1.04 | 1.01 | 0.548 | 0.553 | 0.558 | 0.481 | 0.387 | 0.894 | 0.771 | 0.385 | 0.259 | 0.233
NCI-H1651 | 0.136 | 0.163 | 0.12 | 0.144 | 0.118 | 0.888 | 1.11 | 0.991 | 0.95 | 1.04 | 0.8 | 0.853 | 0.804 | 0.819 | 0.806 | 0.865 | 0.888 | 0.888 | 0.839 | 0.733
NCI-H1666 | 0.65 | 0.698 | 0.723 | 0.619 | 0.651 | 0.865 | 0.903 | 0.729 | 0.885 | 0.877 | 0.944 | 0.852 | 0.79 | 0.865 | 0.68 | 0.816 | 0.706 | 0.672 | 0.629 | 0.689
NCI-H1734 | 0.274 | 0.302 | 0.203 | 0.152 | 0.191 | 0.932 | 0.847 | 0.928 | 0.776 | 1 | 0.68 | 0.721 | 0.733 | 0.602 | 0.171 | 0.739 | 0.691 | 0.698 | 0.459 | 0.348
NCI-H1755 | 0.648 | 0.609 | 0.43 | 0.359 | 0.365 | 0.997 | 1.06 | 0.967 | 0.972 | 1.03 | 0.793 | 0.786 | 0.745 | 0.774 | 0.765 | 0.936 | 0.948 | 0.915 | 0.688 | 0.429
NCI-H1792 | 0.211 | 0.288 | 0.148 | 0.0819 | 0.116 | 0.61 | 0.701 | 0.535 | 0.674 | 0.574 | 0.402 | 0.469 | 0.51 | 0.522 | 0.18 | 0.643 | 0.568 | 0.531 | 0.378 | 0.333
NCI-H1793 | 0.455 | 0.307 | 0.281 | 0.19 | 0.212 | 0.903 | 0.935 | 0.747 |  | 0.968 | 0.483 | 0.524 | 0.363 | 0.503 | 0.327 | 0.848 | 0.947 | 0.854 | 0.5 | 0.434
NCI-H1915 | 0.173 | 0.169 | 0.142 | 0.124 | 0.145 | 1.09 | 1.01 | 1.07 | 1.04 | 1.16 | 0.319 | 0.291 | 0.28 | 0.297 | 0.262 | 0.586 | 0.396 | 0.353 | 0.286 | 0.276
NCI-H1944 | 0.281 | 0.307 | 0.255 | 0.192 | 0.207 | 1.38 | 1.45 | 1.14 | 1.02 | 1.12 | 0.394 | 0.437 | 0.417 | 0.43 | 0.355 | 1.06 | 0.962 | 0.934 | 0.667 | 0.642
NCI-H1975 | 0.292 | 0.266 | 0.232 | 0.193 | 0.174 | 1.1 | 1.16 | 1 | 0.955 | 0.928 | 0.448 | 0.317 | 0.361 | 0.298 | 0.157 | 0.706 | 0.525 | 0.346 | 0.326 | 0.369
NCI-H1993 | 0.647 | 0.614 | 0.625 | 0.44 | 0.473 | 0.774 | 0.751 | 0.701 | 0.648 | 0.818 | 0.502 | 0.505 | 0.597 | 0.505 | 0.485 | 0.767 | 0.745 | 0.763 | 0.718 | 0.659
NCI-H2009 | 0.475 | 0.261 | 0.322 | 0.215 | 0.293 | 1.2 | 1.18 | 1.18 | 1.19 | 1.16 | 0.345 | 0.343 | 0.295 | 0.234 | 0.11 | 1.08 | 0.801 | 0.601 | 0.383 | 0.33
